Results reported in patent publication US12396459B2, “Synergistically effective herbicide composition comprising pyridate and at least one defined 4-HPPD inhibitor” (BELCHIM CROP PROTECTION NV, priority 2018, dated 2025).
Where two headings read alike, the source gives them in different places.

Columns and labels:
Type in all cases: in vivo
Cirsium arvense = assay: Field trial post-emergence in maize: CIRAR; conditions: # = 1, g a.c./ha: PYR 300, MES 100, PYR + MES 300 + 90
Description: (§1) Herbicidal activity of herbicide compositions according to the first aspect of the present invention with regard to different types of unwanted vegetation was determined during trials performed on test fields (field trials). Individual compositions comprising pyridate and individual compositions comprising a defined 4-HPPD inhibitor are compared with a herbicide composition according to the invention comprising both pyridate and a defined 4-HPPD inhibitor. The expected activity of the combination of the active compounds pyridate and a defined 4-HPPD inhibitor is calculated according to above mentioned calculation method by Colby, in order to evaluate a synergistic effect between pyridate and a defined 4-HPPD inhibitor.
(§2) Herbicidal activity was determined by applying herbicide compositions on emerged unwanted vegetation on fields where maize was cultivated. Pyridate and a defined 4-HPPD inhibitor were applied as a tank mixture by mixing these active compounds prior to use in a spray tank. The corresponding mixture was in the form of a spray liquor. Besides, spray liquors of individual compositions comprising pyridate and of individual compositions comprising a defined 4-HPPD inhibitor were used. Test plants of unwanted vegetation with a growth stage corresponding to BBCH 10-18 (according to the extended BBCH-scale) were sprayed with the active compound preparations such that particular desired amounts of active compounds are applied per unit area. Spray liquor was diluted with water to arrive at an application volume of 50 to 450 L/ha. At a specified number of days after application (DAA), the degree of damage to the unwanted vegetation is rated in % of plants of unwanted vegetation that were killed, which was assessed by visually controlling the plants.

Rumex obtusifolius = assay: Field trial post-emergence in maize: RUMOB
Description: as §1, §2
(§3) Example 1 concerns a herbicide composition comprising a combination of pyridate and mesotrione, which was applied post-emergence on unwanted vegetation on a field where maize was cultivated, according to the test conditions mentioned above.

Hibiscus ternatus = assay: Field trial post-emergence in maize: HIBTR; conditions: 7-14 DAA; # = 2; g a.c./ha: PYR 300, MES 100, PYR + MES 300 + 90
Description: as §1
(§4) Herbicidal activity was determined by applying herbicide compositions on emerged unwanted vegetation on fields where maize was cultivated. Pyridate and a defined 4-HPPD inhibitor were applied as a tank mixture by mixing these active compounds prior to use in a spray tank. The corresponding mixture was in the form of a spray liquor. […] At a specified number of days after application (DAA), the degree of damage to the unwanted vegetation is rated in % of plants of unwanted vegetation that were killed, which was assessed by visually controlling the plants.

Stachys arvensis = assay: Field trial post-emergence in maize: STAAR; conditions: 7-14 DAA; # = 1; g a.c./ha: PYR 300, MES 100, PYR + MES 300 + 90
Description: as §1, §4

Erodium ciconium = assay: Field trial post-emergence in maize: EROCC
Description: as §1, §2, §3

Echinochloa crus-galli = assay: Field trial post-emergence in maize: ECHCG; conditions: for herbicidal effect (h.e.): g a.c./ha: PYR 300, MES 100, PYR + MES 300 + 90
Description: as §1, §2

Digitaria sanguinalis = assay: Examples 6-8 herbicidal effect: DIGSA; conditions: 7 DAA
Capsella bursa-pastoris = assay: Field trial post-emergence in maize: CAPBP
Description: as §1, §2

Fallopia convolvulus = assay: Field trial post-emergence in maize: POLCO
Description: as §1, §2

Portulaca oleracea = assay: Field trial post-emergence in maize: POROL; conditions: # = 1, g a.c./ha: PYR 300, MES 100, PYR + MES 300 + 90
Description: as §1, §2

Veronica persica [1] = assay: Field trial post-emergence in maize: VERPE; conditions: for herbicidal effect (h.e.): g a.c./ha: PYR 300, MES 100, PYR + MES 300 + 90
Description: as §1, §2

Chenopodium album = assay: Examples 6-8 herbicidal effect: CHEAL; conditions: 7 DAA
Setaria verticillata = assay: Field trial post-emergence in maize: SETVE
Description: as §1, §2, §3

Geranium sp. = assay: Field trial post-emergence in maize: GERSS; conditions: # = 1, g a.c./ha: PYR 300, MES 100, PYR + MES 300 + 90
Description: as §1, §2

Veronica persica [2] = assay: Examples 6-8 herbicidal effect: VERPE; conditions: 7 DAA
[3] = g a.c./ha: MES 50, PYR + SMO 300 + 800
[4] = g a.c./ha: MES 80, PYR + MES 300 + 50

Compound: CS(=O)(=O)c1ccc(C(=O)C2C(=O)CCCC2=O)c([N+](=O)[O-])c1 [MES, 2-(4-methylsulfonyl-2-nitrobenzoyl) cyclohexane-1,3-dione]
- herbicidal effect (h.e.) (Cirsium arvense; 7-14 DAA): 58%
- herbicidal effect (h.e.) (Cirsium arvense; 31-48 DAA): 78%
- MES h.e. (Rumex obtusifolius; RUMOB 14-20 DAA 45 g a.c./ha): 87%
- MES h.e. (Rumex obtusifolius; RUMOB 14-20 DAA 90 g a.c./ha): 95%
- MES h.e. (Rumex obtusifolius; RUMOB 14-20 DAA 135 g a.c./ha): 95%
- herbicidal effect (h.e.) (Hibiscus ternatus): 62%
- herbicidal effect (h.e.) (Stachys arvensis): 54%
- MES h.e. (Erodium ciconium; EROCC 14-20 DAA 90 g a.c./ha): 32%
- MES h.e. (Erodium ciconium; EROCC 14-20 DAA 135 g a.c./ha): 33%
- herbicidal effect (h.e.) (Echinochloa crus-galli; 7-14 DAA, # = 9): 67%
- herbicidal effect (h.e.) (Echinochloa crus-galli; 18-28 DAA, # = 14): 51%
- herbicidal effect (h.e.) (Echinochloa crus-galli; 31-48 DAA, # = 13): 50%
- MES h.e. (Echinochloa crus-galli; ECHCG 14-20 DAA 45 g a.c./ha): 86%
- MES h.e. (Echinochloa crus-galli; ECHCG 14-20 DAA 90 g a.c./ha): 95%
- MES h.e. (Echinochloa crus-galli; ECHCG 14-20 DAA 135 g a.c./ha): 97%
- MES h.e. (Echinochloa crus-galli; ECHCG 24-31 DAA 45 g a.c./ha): 80%
- MES h.e. (Echinochloa crus-galli; ECHCG 24-31 DAA 90 g a.c./ha): 95%
- MES h.e. (Echinochloa crus-galli; ECHCG 24-31 DAA 135 g a.c./ha): 97%
- herbicidal effect (h.e.) (Digitaria sanguinalis; [3]): 95%
- herbicidal effect (h.e.) (Digitaria sanguinalis; [4]): 92%
- MES h.e. (Capsella bursa-pastoris): 97%
- herbicidal effect (h.e.) (Capsella bursa-pastoris; 7-14 DAA, # = 3, g a.c./ha: PYR 300, MES 100, PYR + MES 300 + 90): 90%
- MES h.e. (Capsella bursa-pastoris; CAPBP 14-20 DAA 300 g a.c./ha): 97%
- MES h.e. (Capsella bursa-pastoris; CAPBP 14-20 DAA 600 g a.c./ha): 97%
- MES h.e. (Capsella bursa-pastoris; CAPBP 24-31 DAA 45 g a.c./ha): 97%
- herbicidal effect (h.e.) (Fallopia convolvulus; 7-14 DAA, # = 5, g a.c./ha: PYR 300, MES 100, PYR + MES 300 + 90): 68%
- herbicidal effect (h.e.) (Fallopia convolvulus; 13-14 DAA, # = 1, g a.c./ha: PYR 450, MES 144, PYR + MES 450 + 144): 92%
- herbicidal effect (h.e.) (Fallopia convolvulus; 18-28 DAA, # = 8, g a.c./ha: PYR 300, MES 100, PYR + MES 300 + 90): 77%
- herbicidal effect (h.e.) (Fallopia convolvulus; 31-48 DAA, # = 8, g a.c./ha: PYR 300, MES 100, PYR + MES 300 + 90): 68%
- MES h.e. (Fallopia convolvulus; POLCO 14-20 DAA 45 g a.c./ha): 77%
- MES h.e. (Fallopia convolvulus; POLCO 14-20 DAA 90 g a.c./ha): 89%
- MES h.e. (Fallopia convolvulus; POLCO 24-31 DAA 45 g a.c./ha): 80%
- MES h.e. (Fallopia convolvulus; POLCO 24-31 DAA 135 g a.c./ha): 97%
- herbicidal effect (h.e.) (Portulaca oleracea; 7-14 DAA): 50%
- herbicidal effect (h.e.) (Portulaca oleracea; 18-28 DAA): 5%
- herbicidal effect (h.e.) (Veronica persica [1]; 7-14 DAA, # = 4): 91%
- herbicidal effect (h.e.) (Veronica persica [1]; 31-48 DAA, # = 5): 93%
- MES h.e. (Veronica persica [1]; VERPE 14-20 DAA 45 g a.c./ha): 20%
- MES h.e. (Veronica persica [1]; VERPE 14-20 DAA 90 g a.c./ha): 75%
- MES h.e. (Veronica persica [1]; VERPE 14-20 DAA 135 g a.c./ha): 70%
- MES h.e. (Veronica persica [1]; VERPE 24-31 DAA 45 g a.c./ha): 10%
- MES h.e. (Veronica persica [1]; VERPE 24-31 DAA 90 g a.c./ha): 55%
- MES h.e. (Veronica persica [1]; VERPE 24-31 DAA 135 g a.c./ha): 60%
- herbicidal effect (h.e.) (Chenopodium album; [3]): 77%
- herbicidal effect (h.e.) (Chenopodium album; [4]): 92%
- MES h.e. (Setaria verticillata; SETVE 14-20 DAA 45 g a.c./ha): 21%
- MES h.e. (Setaria verticillata; SETVE 14-20 DAA 90 g a.c./ha): 41%
- MES h.e. (Setaria verticillata; SETVE 14-20 DAA 135 g a.c./ha): 55%
- MES h.e. (Setaria verticillata; SETVE 24-31 DAA 45 g a.c./ha): 31%
- MES h.e. (Setaria verticillata; SETVE 24-31 DAA 90 g a.c./ha): 37%
- MES h.e. (Setaria verticillata; SETVE 24-31 DAA 135 g a.c./ha): 58%
- herbicidal effect (h.e.) (Geranium sp.; 7-14 DAA): 44%
- herbicidal effect (h.e.) (Geranium sp.; 18-28 DAA): 41%
- herbicidal effect (h.e.) (Geranium sp.; 31-48 DAA): 31%
- herbicidal effect (h.e.) (Veronica persica [2]; [3]): 33%
- herbicidal effect (h.e.) (Veronica persica [2]; [4]): 57%
